From US10479786B2, “Protein kinase inhibitors” (Princeton Drug Discovery Inc, priority 2016, dated 2019)
Values belong to the molecule of their own block, whether it stands above or below them.

What was measured:
Test in all cases: Off-chip Mobility Shift Assay, kinase inhibition
Type in all cases: biochemical
FGFR3 = biological target: T1, FGFR3 (Homo sapiens, UniProt P22607); conditions: at 10 nM; recombinant FGFR3
T1 construct: purchased Carna Biosciences, Inc

EGFR(d746-750) = biological target: T2, EGFR(d746-750) (Homo sapiens, UniProt P00533, DEL746-750); conditions: at 10 nM; recombinant EGFR(d746-750)
T2 construct: purchased Carna Biosciences, Inc

MET = biological target: T3, MET (Homo sapiens, UniProt P08581); conditions: at 10 nM; recombinant MET
T3 construct: purchased Carna Biosciences, Inc

CSK = biological target: T4, CSK (Homo sapiens, UniProt P41240); conditions: at 10 nM; recombinant CSK
T4 construct: purchased Carna Biosciences, Inc

KIT(T670I) = biological target: T5, KIT(T670I) (Homo sapiens, UniProt P10721, T670I); conditions: at 10 nM; recombinant KIT(T670I)
T5 construct: purchased Carna Biosciences, Inc

MST1 = biological target: T6, MST1 (Homo sapiens, UniProt Q13043); conditions: at 10 nM; recombinant MST1
T6 construct: purchased Carna Biosciences, Inc

RET(M918T) = biological target: T7, RET(M918T) (Homo sapiens, UniProt P07949, M918T); conditions: at 10 nM; recombinant RET(M918T)
T7 construct: purchased Carna Biosciences, Inc

KDR = biological target: T8, KDR (Homo sapiens, UniProt P35968); conditions: at 10 nM; recombinant KDR
T8 construct: purchased Carna Biosciences, Inc

BRK = biological target: T9, BRK (Homo sapiens, UniProt Q13882); conditions: at 10 nM; recombinant BRK
T9 construct: purchased Carna Biosciences, Inc

MAP2K2 = biological target: T10, MAP2K2 (Homo sapiens, UniProt P36507); conditions: at 10 nM; recombinant MAP2K2
T10 construct: purchased Carna Biosciences, Inc

Erk1 = biological target: T11, Erk1 (Homo sapiens, UniProt P27361); conditions: at 10 nM; recombinant Erk1
T11 construct: purchased Carna Biosciences, Inc

SRM = biological target: T12, SRM (Homo sapiens, UniProt Q9H3Y6); conditions: at 10 nM; recombinant SRM
T12 construct: purchased Carna Biosciences, Inc

BRAF(V600E) = biological target: T13, BRAF(V600E) (Homo sapiens, UniProt P15056, V600E); conditions: at 10 nM; recombinant BRAF(V600E)
T13 construct: purchased Carna Biosciences, Inc

RET(G691 S) = biological target: T14, RET(G691 S) (Homo sapiens, UniProt P07949, G691S); conditions: at 10 nM; recombinant RET(G691 S)
T14 construct: purchased Carna Biosciences, Inc

JAK2 = biological target: T15, JAK2 (Homo sapiens, UniProt O60674); conditions: at 10 nM; recombinant JAK2
T15 construct: purchased Carna Biosciences, Inc

skMLCK = biological target: T16, skMLCK (Homo sapiens, UniProt Q9H1R3); conditions: at 10 nM; recombinant skMLCK
T16 construct: purchased Carna Biosciences, Inc

RET(Y791F) = biological target: T17, RET(Y791F) (Homo sapiens, UniProt P07949, Y791F); conditions: at 10 nM; recombinant RET(Y791F)
T17 construct: purchased Carna Biosciences, Inc

PKD1 = biological target: T18, PKD1 (Homo sapiens, UniProt Q15139); conditions: at 10 nM; recombinant PKD1
T18 construct: purchased Carna Biosciences, Inc

ALK = biological target: T19, ALK (Homo sapiens, UniProt Q9UM73); conditions: at 10 nM; recombinant ALK
T19 construct: purchased Carna Biosciences, Inc

RET(S891A) = biological target: T20, RET(S891A) (Homo sapiens, UniProt P07949, S891A); conditions: at 10 nM; recombinant RET(S891A)
T20 construct: purchased Carna Biosciences, Inc

KIT(V654A) = biological target: T21, KIT(V654A) (Homo sapiens, UniProt P10721, V654A); conditions: at 10 nM; recombinant KIT(V654A)
T21 construct: purchased Carna Biosciences, Inc

FGFR2 = biological target: T22, FGFR2 (Homo sapiens, UniProt P21802); conditions: at 10 nM; recombinant FGFR2
T22 construct: purchased Carna Biosciences, Inc

EGFR(d746-750/T790M) = biological target: T23, EGFR(d746-750/T790M) (Homo sapiens, UniProt P00533, DEL746-750/T790M); conditions: at 10 nM; recombinant EGFR(d746-750/T790M)
T23 construct: purchased Carna Biosciences, Inc

EGFR(L861Q) = biological target: T24, EGFR(L861Q) (Homo sapiens, UniProt P00533, L861Q); conditions: at 10 nM; recombinant EGFR(L861Q)
T24 construct: purchased Carna Biosciences, Inc

KIT(D816E) = biological target: T25, KIT(D816E) (Homo sapiens, UniProt P10721, D816E); conditions: at 10 nM; recombinant KIT(D816E)
T25 construct: purchased Carna Biosciences, Inc

WNK3 = biological target: T26, WNK3 (Homo sapiens, UniProt Q9BYP7); conditions: at 10 nM; recombinant WNK3
T26 construct: purchased Carna Biosciences, Inc

ROCK1 = biological target: T27, ROCK1 (Homo sapiens, UniProt Q13464); conditions: at 10 nM; recombinant ROCK1
T27 construct: purchased Carna Biosciences, Inc

PDGFRα(D842V) = biological target: T28, PDGFRα(D842V) (Homo sapiens, UniProt P16234, D842V); conditions: at 10 nM; recombinant PDGFRα(D842V)
T28 construct: purchased Carna Biosciences, Inc

DDR1 = biological target: T29, DDR1 (Homo sapiens, UniProt Q08345); conditions: at 10 nM; recombinant DDR1
T29 construct: purchased Carna Biosciences, Inc

ABL(T315I) = biological target: T30, ABL(T315I) (Homo sapiens, UniProt P00519, T315I); conditions: at 1 nM; recombinant ABL(T315I)
T30 construct: purchased Carna Biosciences, Inc

LYNb = biological target: T31, LYNb (Homo sapiens, UniProt P07948); conditions: at 1 nM; recombinant LYNb
T31 construct: purchased Carna Biosciences, Inc

ITK = biological target: T32, ITK (Homo sapiens, UniProt Q08881); conditions: at 1 nM; recombinant ITK
T32 construct: purchased Carna Biosciences, Inc

T21 sequence (P10721 26-976 V654A): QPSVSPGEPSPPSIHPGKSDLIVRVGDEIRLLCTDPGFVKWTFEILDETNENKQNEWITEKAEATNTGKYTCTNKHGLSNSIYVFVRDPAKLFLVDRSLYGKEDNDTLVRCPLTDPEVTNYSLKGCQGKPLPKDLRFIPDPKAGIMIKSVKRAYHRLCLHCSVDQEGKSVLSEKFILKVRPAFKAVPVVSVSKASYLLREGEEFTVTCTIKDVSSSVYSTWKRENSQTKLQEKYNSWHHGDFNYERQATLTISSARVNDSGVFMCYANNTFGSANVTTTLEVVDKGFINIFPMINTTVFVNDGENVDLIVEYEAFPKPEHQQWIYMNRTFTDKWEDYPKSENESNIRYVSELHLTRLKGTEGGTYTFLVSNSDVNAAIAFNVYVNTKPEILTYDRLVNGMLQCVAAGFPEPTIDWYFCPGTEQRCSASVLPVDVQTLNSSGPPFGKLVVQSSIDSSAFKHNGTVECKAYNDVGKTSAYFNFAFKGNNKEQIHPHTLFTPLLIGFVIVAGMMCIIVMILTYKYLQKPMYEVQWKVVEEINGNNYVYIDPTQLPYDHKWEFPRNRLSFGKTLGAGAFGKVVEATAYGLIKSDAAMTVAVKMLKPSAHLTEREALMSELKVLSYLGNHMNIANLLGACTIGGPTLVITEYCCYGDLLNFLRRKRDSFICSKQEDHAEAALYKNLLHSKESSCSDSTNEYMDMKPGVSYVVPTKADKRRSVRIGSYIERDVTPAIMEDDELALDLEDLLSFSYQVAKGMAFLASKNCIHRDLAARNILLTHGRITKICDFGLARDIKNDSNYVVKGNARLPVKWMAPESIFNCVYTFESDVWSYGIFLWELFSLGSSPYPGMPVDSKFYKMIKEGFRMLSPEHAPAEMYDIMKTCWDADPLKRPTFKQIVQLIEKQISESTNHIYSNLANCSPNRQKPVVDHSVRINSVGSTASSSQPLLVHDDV
T13 sequence (P15056 whole entry V600E): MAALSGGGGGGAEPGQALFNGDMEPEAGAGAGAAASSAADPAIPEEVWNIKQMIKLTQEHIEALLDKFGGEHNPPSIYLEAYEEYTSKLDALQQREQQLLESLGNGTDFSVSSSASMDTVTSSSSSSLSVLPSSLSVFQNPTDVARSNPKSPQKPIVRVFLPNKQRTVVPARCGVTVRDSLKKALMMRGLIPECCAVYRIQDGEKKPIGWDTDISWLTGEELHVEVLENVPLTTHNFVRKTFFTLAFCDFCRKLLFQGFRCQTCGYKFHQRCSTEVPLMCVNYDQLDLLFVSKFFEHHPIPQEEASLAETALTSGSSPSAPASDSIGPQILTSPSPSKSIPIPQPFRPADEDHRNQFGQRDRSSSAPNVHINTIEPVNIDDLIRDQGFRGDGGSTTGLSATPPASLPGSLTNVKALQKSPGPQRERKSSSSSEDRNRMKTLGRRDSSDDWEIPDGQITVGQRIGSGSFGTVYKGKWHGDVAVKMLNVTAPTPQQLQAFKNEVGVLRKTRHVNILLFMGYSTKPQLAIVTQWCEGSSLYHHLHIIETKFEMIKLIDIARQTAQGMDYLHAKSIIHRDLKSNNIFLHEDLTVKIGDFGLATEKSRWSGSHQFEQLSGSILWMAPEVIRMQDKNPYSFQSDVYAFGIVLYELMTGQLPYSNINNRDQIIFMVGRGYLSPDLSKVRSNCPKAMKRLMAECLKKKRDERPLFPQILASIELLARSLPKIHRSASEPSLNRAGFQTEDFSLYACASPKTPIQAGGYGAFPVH
T5 sequence (P10721 26-976 T670I): as the sequence (P10721 26-976 V654A) above, with A629V, T645I counted along it
T7 sequence (P07949 29-1114 M918T): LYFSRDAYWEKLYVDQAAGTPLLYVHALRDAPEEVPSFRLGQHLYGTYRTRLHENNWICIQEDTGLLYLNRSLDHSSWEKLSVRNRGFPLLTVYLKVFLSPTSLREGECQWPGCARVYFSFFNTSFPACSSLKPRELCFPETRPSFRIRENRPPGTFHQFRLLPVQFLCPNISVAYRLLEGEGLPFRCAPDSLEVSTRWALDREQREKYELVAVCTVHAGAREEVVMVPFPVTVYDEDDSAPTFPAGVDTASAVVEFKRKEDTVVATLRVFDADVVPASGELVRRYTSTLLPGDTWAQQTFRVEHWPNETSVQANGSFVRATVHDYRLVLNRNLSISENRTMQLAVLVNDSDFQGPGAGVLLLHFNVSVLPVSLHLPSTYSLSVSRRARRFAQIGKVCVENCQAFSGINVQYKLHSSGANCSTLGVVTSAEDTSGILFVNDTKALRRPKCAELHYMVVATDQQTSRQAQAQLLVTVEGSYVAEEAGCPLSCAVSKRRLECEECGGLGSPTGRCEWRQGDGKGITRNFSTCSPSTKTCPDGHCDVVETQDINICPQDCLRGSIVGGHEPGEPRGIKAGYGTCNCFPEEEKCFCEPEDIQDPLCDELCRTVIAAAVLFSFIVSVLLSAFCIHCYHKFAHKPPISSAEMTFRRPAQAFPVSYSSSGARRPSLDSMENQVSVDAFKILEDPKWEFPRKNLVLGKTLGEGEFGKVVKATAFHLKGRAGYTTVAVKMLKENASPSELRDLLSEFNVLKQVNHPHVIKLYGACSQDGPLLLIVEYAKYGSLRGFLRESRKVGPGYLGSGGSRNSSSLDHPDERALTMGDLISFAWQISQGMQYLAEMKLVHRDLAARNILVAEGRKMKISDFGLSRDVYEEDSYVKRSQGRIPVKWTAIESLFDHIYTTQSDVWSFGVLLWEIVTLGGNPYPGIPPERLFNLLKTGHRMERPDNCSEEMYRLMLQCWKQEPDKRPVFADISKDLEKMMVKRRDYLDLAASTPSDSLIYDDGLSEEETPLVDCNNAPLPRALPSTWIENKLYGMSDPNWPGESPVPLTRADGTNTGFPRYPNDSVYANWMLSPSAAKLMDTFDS
T12 sequence (Q9H3Y6 whole entry): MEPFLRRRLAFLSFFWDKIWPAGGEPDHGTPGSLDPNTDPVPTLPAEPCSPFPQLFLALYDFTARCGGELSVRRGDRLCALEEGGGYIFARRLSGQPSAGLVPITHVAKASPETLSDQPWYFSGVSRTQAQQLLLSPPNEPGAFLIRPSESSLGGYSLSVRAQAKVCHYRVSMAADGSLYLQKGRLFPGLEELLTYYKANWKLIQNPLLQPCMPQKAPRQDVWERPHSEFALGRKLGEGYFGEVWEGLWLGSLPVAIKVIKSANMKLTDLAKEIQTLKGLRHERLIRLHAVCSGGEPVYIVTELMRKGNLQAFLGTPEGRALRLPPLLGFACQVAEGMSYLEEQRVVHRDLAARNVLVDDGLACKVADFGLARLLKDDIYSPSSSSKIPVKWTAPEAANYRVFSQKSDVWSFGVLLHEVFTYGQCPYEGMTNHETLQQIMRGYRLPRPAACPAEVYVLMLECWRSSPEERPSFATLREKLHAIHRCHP
T10 sequence (P36507 whole entry): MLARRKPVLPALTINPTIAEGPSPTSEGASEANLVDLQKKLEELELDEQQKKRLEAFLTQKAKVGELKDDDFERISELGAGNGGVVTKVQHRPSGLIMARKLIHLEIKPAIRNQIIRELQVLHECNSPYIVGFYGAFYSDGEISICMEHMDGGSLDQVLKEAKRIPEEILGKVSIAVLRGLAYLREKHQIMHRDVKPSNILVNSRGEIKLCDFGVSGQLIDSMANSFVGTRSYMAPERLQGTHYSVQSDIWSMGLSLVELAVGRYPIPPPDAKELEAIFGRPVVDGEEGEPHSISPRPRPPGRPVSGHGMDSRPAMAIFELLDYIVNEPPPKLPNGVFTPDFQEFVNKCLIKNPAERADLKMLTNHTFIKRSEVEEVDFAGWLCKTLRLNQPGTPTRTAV
T29 sequence (Q08345 19-913): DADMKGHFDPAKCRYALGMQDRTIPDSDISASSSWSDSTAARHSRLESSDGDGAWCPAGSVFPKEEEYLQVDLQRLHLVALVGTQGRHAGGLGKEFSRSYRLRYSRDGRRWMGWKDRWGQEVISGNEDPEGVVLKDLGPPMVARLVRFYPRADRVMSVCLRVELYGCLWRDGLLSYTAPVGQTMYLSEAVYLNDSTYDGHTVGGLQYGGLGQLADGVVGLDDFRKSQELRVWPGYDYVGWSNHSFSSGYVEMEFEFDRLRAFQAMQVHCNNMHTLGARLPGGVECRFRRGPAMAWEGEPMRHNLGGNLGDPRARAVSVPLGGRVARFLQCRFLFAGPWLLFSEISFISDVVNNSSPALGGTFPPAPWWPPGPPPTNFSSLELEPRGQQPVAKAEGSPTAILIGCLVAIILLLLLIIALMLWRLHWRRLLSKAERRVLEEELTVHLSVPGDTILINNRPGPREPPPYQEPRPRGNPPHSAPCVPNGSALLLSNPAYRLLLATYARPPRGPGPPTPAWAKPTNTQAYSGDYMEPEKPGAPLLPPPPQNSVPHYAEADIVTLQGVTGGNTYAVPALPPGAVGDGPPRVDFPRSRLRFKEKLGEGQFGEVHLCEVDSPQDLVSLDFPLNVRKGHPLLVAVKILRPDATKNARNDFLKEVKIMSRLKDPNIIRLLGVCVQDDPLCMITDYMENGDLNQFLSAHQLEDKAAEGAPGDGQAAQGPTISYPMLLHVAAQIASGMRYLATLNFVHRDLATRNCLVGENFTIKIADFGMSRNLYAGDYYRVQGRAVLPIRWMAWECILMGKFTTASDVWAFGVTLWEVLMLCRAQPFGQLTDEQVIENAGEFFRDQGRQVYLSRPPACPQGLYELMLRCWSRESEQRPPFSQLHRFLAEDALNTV
T14 sequence (P07949 29-1114 G691S): as the sequence (P07949 29-1114 M918T) above, with G663S, T890M counted along it
T17 sequence (P07949 29-1114 Y791F): as the sequence (P07949 29-1114 M918T) above, with Y763F, T890M counted along it
T20 sequence (P07949 29-1114 S891A): as the sequence (P07949 29-1114 M918T) above, with S863A, T890M counted along it
T25 sequence (P10721 26-976 D816E): as the sequence (P10721 26-976 V654A) above, with A629V, D791E counted along it

- inhibition at 0.01 µM (FGFR3): < 50%
- inhibition at 0.01 µM (EGFR(d746-750)): < 50%
- inhibition at 0.01 µM (MET): < 50%
- inhibition at 0.01 µM (CSK): > 50%
- inhibition at 0.01 µM (KIT(T670I)): < 50%
- inhibition at 0.01 µM (MST1): < 50%
- inhibition at 0.01 µM (RET(M918T)): < 50%
- inhibition at 0.01 µM (KDR): < 50%
- inhibition at 0.01 µM (BRK): > 50%
- inhibition at 0.01 µM (MAP2K2): < 50%
- inhibition at 0.01 µM (Erk1): < 50%
- inhibition at 0.01 µM (SRM): > 50%
- inhibition at 0.01 µM (BRAF(V600E)): < 50%
- inhibition at 0.01 µM (RET(G691 S)): < 50%
- inhibition at 0.01 µM (JAK2): < 50%
- inhibition at 0.01 µM (skMLCK): < 50%
- inhibition at 0.01 µM (RET(Y791F)): < 50%
- inhibition at 0.01 µM (PKD1): < 50%
- inhibition at 0.01 µM (ALK): < 50%
- inhibition at 0.01 µM (RET(S891A)): < 50%
- inhibition at 0.01 µM (KIT(V654A)): < 50%
- inhibition at 0.01 µM (FGFR2): < 50%
- inhibition at 0.01 µM (EGFR(d746-750/T790M)): < 50%
- inhibition at 0.01 µM (EGFR(L861Q)): < 50%
- inhibition at 0.01 µM (KIT(D816E)): < 50%
- inhibition at 0.01 µM (WNK3): < 50%
- inhibition at 0.01 µM (ROCK1): < 50%
- inhibition at 0.01 µM (PDGFRα(D842V)): < 50%
- inhibition at 0.01 µM (DDR1): < 50%
Compound: [2H]c1cc(C)c(NC(=O)c2cnc(Nc3cc(N4CCCCC4)nc(C)n3)s2)c(Cl)c1 [Compound I, N-(2-chloro-4-deuterio-6-methyl-phenyl)-2-[[2-methyl-6-(1-piperidyl)pyrimidin-4-yl]amino]thiazole-5-carboxamide]

- inhibition at 0.001 µM (ABL(T315I)): < 50%
- inhibition at 0.001 µM (LYNb): > 50%
- inhibition at 0.001 µM (ITK): < 50%
Compound: [2H]c1cc(C)c(NC(=O)c2cnc(Nc3cc(N4CCC(O)CC4)nc(C)n3)s2)c(Cl)c1 [Compound II, N-(2-chloro-4-deuterio-6-methyl-phenyl)-2-[[6-(4-hydroxy-1-piperidyl)-2-methyl-pyrimidin-4-yl]amino]thiazole-5-carboxamide]
